# System: 817829-284-R-J1-PDC complex spheroids, viability
# Assay: Anticancer human tumor 817829-284-R-J1-PDC patient-derived colon adenocarcinoma cell line growth inhibition [GQUAD]
# Conditions: for IC50: curve of first compound; for viability, T/C: stronger effect = lower value
# From the text: DNA G-quadruplex Stabilizer Agents in Combinations in Complex Spheroids
# A high-throughput screen of multi-cell type tumor spheroids was designed to identify active combinations of DNA G-quadruplex stabilizer agents and targeted small molecules. Complex spheroids include a stromal component modeled by human endothelial cells (HUVEC) and fibroblasts modeled by human mesenchymal stem cells (MSCs). The concentration ranges selected for each drug and investigational agent were based upon clinically achievable concentrations if the clinical Cmax of the agent was known.
# Compounds. The drugs and investigational agents: pidnarulex (CX-5461; NSC782164), APTO-253 (NSC789042), BRACO-19 (NSC847499), peposertib (NSC802822), ceralasertib (NSC780249), elimusertib (NSC800525), camonsertib (NSC841442), AZD-1390 (NSC803789), olaparib (NSC753686), talazoparib (NSC767125), ART-558 (NSC835418), sotorasib (NSC818433), MRTX-1133 (NSC836407), SN-38 (NSC673596), topotecan (NSC609699), etoposide (NSC141540), doxorubicin (NSC123127), gemcitabine (NSC613327), 5-fluorouracil (NSC19893), paclitaxel (NSC125973), vemurafenib (NSC761431), panobinostat (NSC761190), R-306465 (JNJ-16241199; NSC773264), adavosertib (NSC754352), TP-3654 (NSC805149), carboplatin (NSC241240), KSQ-4279 (NSC840948), and staurosporine (NSC755774) were obtained from the National Cancer Institute (NCI) Developmental Therapeutics Program Chemical Repository (34). The FDA-approved anticancer drug set is available from the NCI Developmental Therapeutics Program. […] The stock solutions were prepared in dimethyl sulfoxide (DMSO, Sigma-Aldrich, St. Louis, MO, cat. D2650) at 800-fold the tested concentration and stored at -70 degrees C prior to their use. All drugs and investigational agents were tested over a range starting from a high concentration at or near the clinical Cmax and decreasing in half-log increments. If the clinical Cmax for an agent had not been determined, the highest concentration tested was 10 microM.
# 2.3 Cell Culture. All cells were maintained in an incubator at 37 degrees C and 5% CO2 with 95% humidity. The PDC lines were cultured according to standard operating procedures established by the NCI PDMR. All PDCs were thawed and cultured in Matrigel-coated flasks prepared with a working solution of 1X Ham's F-12 nutrient mix, without supplementation (Invitrogen, cat. 11765054), 100 U/mL penicillin-streptomycin (Invitrogen, cat. 15140122), and 2.5% Matrigel (Corning Inc., cat. 354248) for the first three passages. The 857933-349-R-J2-PDC line was cultured in 6C/Colon 1B media, which includes advanced DMEM/F-12 (Thermo Fisher Scientific, cat. 12634028), 10 mM HEPES (Thermo Fisher Scientific, cat. 15630080), 1X GlutaMAX supplement (Thermo Fisher Scientific, cat. 35050061), 0.1 mg/mL primocin (InvivoGen, cat. ant-pm-2), 10% defined fetal bovine serum, heat inactivated (HyClone Laboratories Inc., cat. SH30070.03HI), 50% L-WRN conditioned media (ATCC, cat. CRL-3276), 1.25 mM N-Acetyl-L-cysteine (Sigma-Aldrich, cat. A9165), 10 mM nicotinamide (Sigma-Aldrich, cat. N0636), 1X B-27 supplement (Thermo Fisher Scientific, cat. 17504044), 1X N-2 supplement (Thermo Fisher Scientific, cat. 17502048), 10 microM Y-27632 dihydrochloride (Tocris Bioscience, cat. 1254), and 50 ng/mL human EGF recombinant protein (Thermo Fisher Scientific, cat. PHG0311). The 485176-168-R4-J1-PDC line was cultured in Panc media, which includes all 6C/Colon 1B media components plus 100 ng/mL human FGF-10 (Thermo Fisher Scientific, cat. 100-26), 500 nM SB-431542 (Selleckchem, cat. S1067), and gastrin (Tocris, cat. 3006).
# […]
# [1] = second compound 0.0316 µM, first compound 0.0316 µM
# [2] = second compound 0.0316 µM, first compound 0.316 µM
# [3] = second compound 0.1 µM, first compound 0.0316 µM
# [4] = second compound 0.1 µM, first compound 0.316 µM
# [5] = second compound 0.316 µM, first compound 0.0316 µM
# [6] = second compound 0.316 µM, first compound 0.316 µM
# [7] = second compound 1 µM, first compound 0.0316 µM
# [8] = second compound 1 µM, first compound 0.316 µM
# [9] = second compound 3.16 µM, first compound 0.0316 µM
# [10] = second compound 3.16 µM, first compound 0.316 µM
# [11] = second compound 10 µM, first compound 0.0316 µM
# [12] = second compound 10 µM, first compound 0.316 µM
# 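Also: spheroids exposed to agents for 7 days before readout.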
# 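For viability, T/C in this document: percent viability relative to DMSO vehicle control taken as 100%.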
smiles,measurement,setting,value
Cn1ncnc1[C@H]1c2n[nH]c(=O)c3cc(F)cc(c23)N[C@@H]1c1ccc(F)cc1 + CN(C)c1ccc(Nc2c3ccc(NC(=O)CCN4CCCC4)cc3nc3cc(NC(=O)CCN4CCCC4)ccc23)cc1,IC50,second compound 0.0316 µM,> 0.316 µM
same,IC50,second compound 0.1 µM,> 0.316 µM
same,IC50,second compound 0.316 µM,> 0.316 µM
same,IC50,second compound 1 µM,> 0.316 µM
same,IC50,second compound 3.16 µM,> 0.316 µM
same,IC50,second compound 10 µM,> 0.316 µM
same,"viability, T/C","second compound 0.0316 µM, first compound 0.000999 µM",91.3%
same,"viability, T/C","second compound 0.0316 µM, first compound 0.00316 µM",112%
same,"viability, T/C","second compound 0.0316 µM, first compound 0.00999 µM",112%
same,"viability, T/C",[1],95%
same,"viability, T/C","second compound 0.0316 µM, first compound 0.0999 µM",85.1%
same,"viability, T/C",[2],68.9%
same,"viability, T/C","second compound 0.1 µM, first compound 0.000999 µM",95.6%
same,"viability, T/C","second compound 0.1 µM, first compound 0.00316 µM",105%
same,"viability, T/C","second compound 0.1 µM, first compound 0.00999 µM",95.4%
same,"viability, T/C",[3],94%
same,"viability, T/C","second compound 0.1 µM, first compound 0.0999 µM",86.2%
same,"viability, T/C",[4],80%
same,"viability, T/C","second compound 0.316 µM, first compound 0.000999 µM",95.8%
same,"viability, T/C","second compound 0.316 µM, first compound 0.00316 µM",104%
same,"viability, T/C","second compound 0.316 µM, first compound 0.00999 µM",95.8%
same,"viability, T/C",[5],101%
same,"viability, T/C","second compound 0.316 µM, first compound 0.0999 µM",97.7%
same,"viability, T/C",[6],78.6%
same,"viability, T/C","second compound 1 µM, first compound 0.000999 µM",90%
same,"viability, T/C","second compound 1 µM, first compound 0.00316 µM",99%
same,"viability, T/C","second compound 1 µM, first compound 0.00999 µM",99.6%
same,"viability, T/C",[7],92.6%
same,"viability, T/C","second compound 1 µM, first compound 0.0999 µM",90.4%
same,"viability, T/C",[8],71.8%
same,"viability, T/C","second compound 3.16 µM, first compound 0.000999 µM",92.2%
same,"viability, T/C","second compound 3.16 µM, first compound 0.00316 µM",99.7%
same,"viability, T/C","second compound 3.16 µM, first compound 0.00999 µM",90.6%
same,"viability, T/C",[9],89.2%
same,"viability, T/C","second compound 3.16 µM, first compound 0.0999 µM",104%
same,"viability, T/C",[10],79.9%
same,"viability, T/C","second compound 10 µM, first compound 0.000999 µM",97.2%
same,"viability, T/C","second compound 10 µM, first compound 0.00316 µM",97.3%
same,"viability, T/C","second compound 10 µM, first compound 0.00999 µM",89.6%
same,"viability, T/C",[11],81.2%
same,"viability, T/C","second compound 10 µM, first compound 0.0999 µM",79.1%
same,"viability, T/C",[12],63.4%
O=C(c1cc(Cc2n[nH]c(=O)c3ccccc23)ccc1F)N1CCN(C(=O)C2CC2)CC1 + CN(C)c1ccc(Nc2c3ccc(NC(=O)CCN4CCCC4)cc3nc3cc(NC(=O)CCN4CCCC4)ccc23)cc1,IC50,second compound 0.0316 µM,> 10 µM
same,IC50,second compound 0.1 µM,> 10 µM
same,IC50,second compound 0.316 µM,> 10 µM
same,IC50,second compound 1 µM,> 10 µM
same,IC50,second compound 3.16 µM,> 10 µM
same,IC50,second compound 10 µM,> 10 µM
same,"viability, T/C",[1],108%
same,"viability, T/C","second compound 0.0316 µM, first compound 0.1 µM",97.8%
same,"viability, T/C",[2],102%
same,"viability, T/C","second compound 0.0316 µM, first compound 1 µM",90.7%
same,"viability, T/C","second compound 0.0316 µM, first compound 3.16 µM",78.8%
same,"viability, T/C","second compound 0.0316 µM, first compound 10 µM",58.3%
same,"viability, T/C",[3],101%
same,"viability, T/C","second compound 0.1 µM, first compound 0.1 µM",107%
same,"viability, T/C",[4],108%
same,"viability, T/C","second compound 0.1 µM, first compound 1 µM",98.6%
same,"viability, T/C","second compound 0.1 µM, first compound 3.16 µM",100%
same,"viability, T/C","second compound 0.1 µM, first compound 10 µM",60.2%
same,"viability, T/C",[5],102%
same,"viability, T/C","second compound 0.316 µM, first compound 0.1 µM",97.6%
same,"viability, T/C",[6],107%
same,"viability, T/C","second compound 0.316 µM, first compound 1 µM",93%
same,"viability, T/C","second compound 0.316 µM, first compound 3.16 µM",95.2%
same,"viability, T/C","second compound 0.316 µM, first compound 10 µM",66.8%
same,"viability, T/C",[7],107%
same,"viability, T/C","second compound 1 µM, first compound 0.1 µM",96.7%
same,"viability, T/C",[8],99%
same,"viability, T/C","second compound 1 µM, first compound 1 µM",93.7%
same,"viability, T/C","second compound 1 µM, first compound 3.16 µM",93.7%
same,"viability, T/C","second compound 1 µM, first compound 10 µM",62.5%
same,"viability, T/C",[9],100%
same,"viability, T/C","second compound 3.16 µM, first compound 0.1 µM",103%
same,"viability, T/C",[10],94.1%
same,"viability, T/C","second compound 3.16 µM, first compound 1 µM",99.5%
same,"viability, T/C","second compound 3.16 µM, first compound 3.16 µM",94.9%
same,"viability, T/C","second compound 3.16 µM, first compound 10 µM",58.3%
same,"viability, T/C",[11],97.4%
same,"viability, T/C","second compound 10 µM, first compound 0.1 µM",102%
same,"viability, T/C",[12],94.5%
same,"viability, T/C","second compound 10 µM, first compound 1 µM",88.4%
same,"viability, T/C","second compound 10 µM, first compound 3.16 µM",70.7%
same,"viability, T/C","second compound 10 µM, first compound 10 µM",52.5%
